Data published in patent US20120052061A1, “THERAPIES FOR TREATING CANCER USING COMBINATIONS OF COX-2 INHIBITORS AND ANTI-HER2(ERBB2) ANTIBODIES OR COMBINATIONS OF COX-2 INHIBITORS AND HER2(ERBB2) RECEPTOR TYROSINE KINASE INHIBITORS” (Tragara Pharmaceuticals Inc., priority 2007, published 2012).
Like-named read-outs stand apart in the source and are kept apart here.

Assays:
[1] = test system: human breast cancer cells (SK-BR-3); experiment: SK-BR-3 model (Example 8); assay type: in vivo, nude mice; details: trastuzumab intravenously
Procedure: Mice are injected subcutaneously in the left paw (1×10^6 tumor cells suspended in 30% Matrigel) and tumor volume is evaluated using a phlethysmometer twice a week for 30-60 days. Implantation of human breast cancer cells (SK-BR-3) into nude mice produces tumors that will reach 0.6-2 ml between 30-50 days. […] The data is expressed as the mean+/−SEM. Student's and Mann-Whitney tests are used to assess differences between means using the InStat software package.
The efficacy of both agents are determined by measuring tumor volume.
B. In a second assay, mice injected with SK-BR-3 cancer cells are then treated with 5-FU on days 12 through 15. […] The efficacy of both agents are determined by measuring tumor volume.

[2] = test system: MCF-7 tumor; details: for tolerability: mouse, in vivo;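 as to all read-outs here: mouse MCF-7 tumor model, oral gavage dosing started once mean tumor size reached 100-200 mg, endpoint at tumor volume 0.75 g or 90 days, whichever occurred earlier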
Procedure: Upon reaching an average tumor size of 100-200 mg the treatment was begun. Celecoxib and 2-(4-ethoxyphenyl)-4-methyl-1-(4-sulfamoylphenyl)-pyrrole were both formulated as a solution in 1% carboxymethyl cellulose/water and dosed orally by gavage. The endpoint for the study was when tumor volume reached 0.75 gms or 90 days, which ever came first.

[3] = oral pharmacokinetics in dogs; assay type: in vivo
Procedure: (§1) Peak plasma concentrations were achieved between 1 and 3 hours after a dose of 5 mg/kg.

[4] = human, in vivo, po
Procedure: as §1

[5] = oral pharmacokinetics in monkeys; assay type: in vivo
Procedure: as §1

[6] = in vivo
[7] = oral pharmacokinetics, all species examined; assay type: in vivo, mice, rats, dogs, and monkeys; details: orally administered
Procedure: as §1

[8] = rat, in vivo
[9] = human, in vivo
[10] = dog, in vivo
[11] = test system: BT474 tumor; experiment: BT474 model, tumor growth delay study (Example 9); details: po, qd to end;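 also: female SCID mice bearing subcutaneous flank BT474 xenografts, oral gavage dosing started at 100-200 mg tumors, caliper volume twice weekly, endpoint tumor 0.75 g or 90 days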
Procedure: Female SCID mice were injected subcutaneously in the flank (1 mm^3 BT474 tumor) and tumor volume was evaluated using a caliper twice a week for up to 90 days, longer for responders. Upon reaching an average tumor size of 100-200 mg the treatment was begun. Celecoxib and 2-(4-ethoxyphenyl)-4-methyl-1-(4-sulfamoylphenyl)-pyrrole were both formulated as a solution in 1% carboxymethyl cellulose/water and dosed orally by gavage. […] The endpoint for the study was when tumor volume reached 0.75 gms or 90 days, which ever came first.

[12] = oral pharmacokinetics in rodents; assay type: in vivo, rodents (mice, rats)
Procedure: as §1

[13] = third assay (C): 5-FU i.p 50 mg/kg on days 14 through 17, COX-2 inhibitor in the diet
[14] = Groups 3 and 9: 30 mg/kg, po, daily
[15] = Groups 4 and 10: 10 mg/kg, po, daily
[16] = Groups 5 and 11: 3 mg/kg, po, daily
[17] = Groups 6 and 12: 1 mg/kg, po, daily
[18] = Groups 2 and 6: single agent 100 mg/kg
[19] = Groups 3 and 7: single agent 30 mg/kg
[20] = Group 5: single agent 300 mg/kg

## Cc1onc(-c2ccccc2)c1-c1ccc(S(N)(=O)=O)cc1 [valdecoxib]
[1]; [13]
  reduction of tumor volume: 69%

## CCOc1ccc(-c2cc(C)cn2-c2ccc(S(N)(=O)=O)cc2)cc1
[2]; Group 7: 0.3 mg/kg, po, daily
  Difference from control: 2.0
  Median Total Time to Endpoint: 7.5 days
[2]; [14]
  Difference from control: 2.5
  Median Total Time to Endpoint: 8.0 days
[2]; [15]
  Difference from control: 1.8
  Median Total Time to Endpoint: 7.3 days
[2]; [16]
  Difference from control: 1.3
  Median Total Time to Endpoint: 6.8 days
[2]; [17]
  Difference from control: 1.6
  Median Total Time to Endpoint: 7.1 days
[2]; po
  tolerability: well-tolerated
[2]; single agent, po, daily
  active as a single agent in MCF-7: Neither
[3]
  Oral availability: 59%
[4]
  dose exposure relationship: linear dose exposure relationship
[5]
  Oral availability: 34%
[6]
  toxicological findings: expected findings related to inhibition of cyclooxygenase
[7]
  absorption: rapidly absorbed
[8]
  minimum lethal dose: 600 mg/kg
[9]
  gastric or duodenal toxicity compared to placebo: no increase in gastric or duodenal toxicity
[10]
  minimum lethal dose: > 2000 mg/kg
[11]; Group 4: single agent 10 mg/kg
  % tumor growth delay: −22%
  Difference from control: −8.5
  Median Total Time to Endpoint: 29.7 days
  Regressions: CR (complete regressions): 0/0/0
  Regressions: PR (partial regressions): 0/0/0
  Regressions: TFS (tumor free survivors): 0/0/0
[11]; [18]
  % tumor growth delay: −14%
  Difference from control: −5.5
  Median Total Time to Endpoint: 32.7 days
  Regressions: CR (complete regressions): 0/0/0
  Regressions: PR (partial regressions): 0/0/0
  Regressions: TFS (tumor free survivors): 0/0/0
[11]; [19]
  % tumor growth delay: −16%
  Difference from control: −6.2
  Median Total Time to Endpoint: 32.0 days
  Regressions: CR (complete regressions): 0/0/0
  Regressions: PR (partial regressions): 0/0/0
  Regressions: TFS (tumor free survivors): 0/0/0
[12]; mice, rats, plasma, 5 mg/kg, rodents, oral, read-out: elimination half life (t1/2)
  half-life: 4 to 5 h
[12]; rodent
  Oral availability: greatest

## O=c1[nH]cc(F)c(=O)[nH]1 [5-FU, 5-fluorouracil]
[1]; second assay (B): 5-FU i.p 50 mg/kg on days 12, 13, 14, and 15, pyrrole in the diet
  reduction of tumor volume: 61%
[1]; [13]
  reduction of tumor volume: 35%

## O=P1(N(CCCl)CCCl)NCCCO1 (centres unmarked) [cyclophosphamide]
[2]; Group 2: 112 mg/kg Q4D×3
  Difference from control: 9.2
  Median Total Time to Endpoint: 14.7 days

## Cc1ccc(-c2cc(C(F)(F)F)nn2-c2ccc(S(N)(=O)=O)cc2)cc1 [celecoxib, reference compound]
[2]; Group 8: 100 mg/kg, po, daily
  Difference from control: 1.6
  Median Total Time to Endpoint: 7.1 days
[2]; [14]
  Difference from control: 2.1
  Median Total Time to Endpoint: 7.6 days
[2]; [15]
  Difference from control: 2.1
  Median Total Time to Endpoint: 7.6 days
[2]; [16]
  Difference from control: 1.4
  Median Total Time to Endpoint: 6.9 days
[2]; [17]
  Difference from control: 1.7
  Median Total Time to Endpoint: 7.2 days
[2]; po
  tolerability: well-tolerated
[11]; [20]
  % tumor growth delay: −4%
  Difference from control: −1.6
  Median Total Time to Endpoint: 36.6 days
  Regressions: CR (complete regressions): 0/0/0
  Regressions: PR (partial regressions): 0/0/0
  Regressions: TFS (tumor free survivors): 0/0/0
[11]; [18]
  % tumor growth delay: −4%
  Difference from control: −1.4
  Median Total Time to Endpoint: 36.8 days
  Regressions: CR (complete regressions): 0/0/0
  Regressions: PR (partial regressions): 0/0/0
  Regressions: TFS (tumor free survivors): 0/0/0
[11]; [19]
  Regressions: CR (complete regressions): 0/0/0
  Regressions: PR (partial regressions): 0/0/0
  Regressions: TFS (tumor free survivors): 0/0/0
